Assay results published in ChEMBL document CHEMBL4145566, “Isoindolinones, Phthalides, and a Naphthoquinone from the Fruiting Body of Daldinia concentrica” (J Nat Prod, 2018).

Tested on: HUVEC
Experiment: Antiangiogenic activity in HUVEC assessed as inhibition of cell proliferation after 18 hrs by WST-8 reagent based assay
Format: functional
Details: Homo sapiens

SMILES | IC50 [µM]
C=C1[C@@H](C)[C@H]2[C@H](Cc3ccccc3)NC(=O)[C@]23OC(=O)/C=C/[C@@H](O)CCC[C@@H](C)C/C=C/[C@H]3[C@@H]1O | 0.2
COc1cccc2c1C(=O)C(=O)C=C2c1ccc(O)c2c(OC)cccc12 | 7.5
